From US20220289685A1, “ANTIMALARIAL HEXAHYDROPYRIMIDINE ANALOGUES” (UCB BIOPHARMA SRL, priority 2019, published 2022)
Counter-ions that a name gives are not always drawn. Like-named read-outs stand apart in the source and are kept apart here.

System: Plasmodium falciparum 3D7 strain
Test: P. falciparum 3D7 asexual blood stage assay (SYBR green readout)
Type: cell-based
Conditions: Plasmodium falciparum
Protocol: Asexual Blood Stage Assay
The assay used to measure the effect of test compounds on a bloodstream stage of Plasmodium falciparum: 3D7 strain employs SYBR green as the readout. This is a dye that binds to double stranded deoxyribonucleic acid (DNA) with a resulting increase in fluorescence, allowing detection of P. falciparum DNA in infected erythrocytes, and thereby providing a measure of parasite growth and propagation.
P. falciparum Culture Maintenance
Erythrocytes (A+ blood) were prepared for both parasite culture and assay by washing 4 times with incomplete media (15.9 g RPMI 1640 (25 mM HEPES, L-glutamine), 1 g NaHCO3, 2 g glucose, 400 μL gentacin (500 mg/mL), 2 mL hypoxanthine solution (13.6 g/L in 0.1M NaOH pH 7.3) in 1 litre of media). The cells were centrifuged at 1800 g for 5 minutes, before decanting the supernatant and re-suspending in fresh incomplete media. On the final wash, the cells were re-suspended in complete media (incomplete media with 5 g/L AlbumaxII), and centrifuged at 1800 g for 3 minutes. This cell sediment was treated as 100% haematocrit.
P. falciparum 3D7 was cultured in erythrocytes at 5% haematocrit in complete media at 37° C. (1% O2, 3% CO2, balance N2). Cultures were split on a weekly basis to achieve a 1% parasitaemia in erythrocites at 5% haematocrit in fresh media. Culture media is replaced by fresh media every other day (2 times during the week).
On day 1, test compounds were added to assay plates using Echo dispensing technology ([…] and 20 points titration). 50 nL of each compound dilution was added to 50 μL of culture (5% haematocrit, 0.5% parasitaemia) and incubated for 72 h at 37° C. (1% O2, 3% CO2, balance N2). Final concentrations of test compounds ranged from 50,000 nM to 15 nM, in […].
On day 4, 10 μL SYBR green (Invitrogen S7563 supplied as 10,000× concentrate in DMSO) pre-diluted to 3× concentrate with Lysis buffer (20 mM Tris pH 7.9, 5% EDTA, 0.16% w/v, 1.6% TX100 v/v) was added to the cultures and incubated in the dark, overnight, at room temperature.
On day 5, fluorescent signal was measured using a BioTek plate reader (excitation 485 nm, emission 528 nm). All data were processed using IDBS ActivityBase. Raw data were converted into percent inhibition through linear regression by setting the high inhibition control (mefloquine) as 100% and the no inhibition control (DMSO) as 0%. Quality control criteria for passing plates were as follows: Z′>0.5, S:B>3, 30% CV(no inhibition control)<15. The formula used to calculate Z′ is: […]
All EC50 curve fitting was undertaken using the following bi-phasic two site dose response using XLfit model 300 (IDBS):
where A=100 minus the top of the upper curve 1 and the bottom of lower curve; B=Hill slope; log(C)=IC50 concentration at lower site; log(D)=IC50 concentration at upper site; x=inhibitor concentration; and y=% inhibition.

[1] = Erythrocyte, P. falciparum 3D7 in human erythrocytes, 72 h incubation, SYBR green fluorescence, read-out: IC50

| Compound | IC50 (3D7, Erythrocyte, 72 h) [nM] | IC50 [1] [nM] |
| --- | --- | --- |
| COc1ccc(S(C)(=O)=O)cc1C(=O)Nc1cccc([C@]2(C)CC(=O)N([C@@H]3CCO[C@H](C)C3)C(=N)N2)c1Cl (relative stereo) [Example 85, N-(2-Chloro-3-{(4S)-2-imino-4-methyl-1-[(2R*,4R*)-2-methyl-tetrahydropyran-4-yl]-6-oxo-hexahydropyrimidin-4-yl}phenyl)-2-methoxy-5-(methylsulfonyl)-benzamide trifluoroacetic acid salt] | 76 | – |
| C[C@@H]1C[C@H](N2C(=N)N[C@](C)(c3cccc(NC(=O)c4cc(F)c(F)cc4F)c3Cl)CC2=O)CCO1 (relative stereo) [Example 64, N-(2-Chloro-3-{(4S)-2-imino-4-methyl-1-[(2,R*,4R*)-2-methyl-tetrahydropyran-4-yl]-6-oxo-hexahydropyrimidin-4-yl}phenyl)-2,4,5-trifluorobenzamide hydrochloride] | – | 13 |
| COc1ccc2ccccc2c1C(=O)Nc1cccc([C@]2(C)CC(=O)N([C@@H]3CCO[C@H](C)C3)C(=N)N2)c1Cl (relative stereo) [Example 79, N-(2-Chloro-3-{(4S)-2-imino-4-methyl-1-[(2R*,4R*)-2-methyl-tetrahydropyran-4-yl]-6-oxo-hexahydropyrimidin-4-yl]phenyl)-2-methoxynaphthalene-1-carboxamide trifluoroacetic acid salt] | 61 | – |
| C[C@@H]1C[C@H](N2C(=N)N[C@](C)(c3cccc(NC(=O)c4ncc(Cl)cn4)c3Cl)CC2=O)CCO1 (relative stereo) [Example 92, 5-Chloro-N-(2-chloro-3-{(4S)-2-imino-4-methyl-1-[(2R*,4R*)-2-methyltetrahydropyran-4-yl]-6-oxo-hexahydropyrimidin-4-yl]phenyl)-pyrimidine-2-carboxamide hydrochloride] | 28 | – |
| C[C@@H]1C[C@H](N2C(=N)N[C@](C)(c3cccc(NC(=O)c4ccncc4)c3Cl)CC2=O)CCO1 (relative stereo) [Example 5, N-(2-Chloro-3-{(4S)-2-imino-4-methyl-1-[(2R*,4R*)-2-methyl-tetrahydropyran-4-yl]-6-oxo-hexahydropyrimidin-4-yl]phenyl)-pyridine-4-carboxamide hydrochloride] | 285 | – |
| C[C@@H]1C[C@H](N2C(=N)N[C@](C)(c3cccc(NC(=O)c4cncc(C#N)c4)c3Cl)CC2=O)CCO1 (relative stereo) [Example 74, N-(2-Chloro-3-{(4S)-2-imino-4-methyl-1-[(2R*,4R*)-2-methyl-tetrahydropyran-4-yl]-6-oxo-hexahydropyrimidin-4-yl}phenyl)-5-cyanopyridine-3-carboxamide hydrochloride] | 109 | – |
| C[C@@H]1C[C@H](N2C(=N)N[C@](C)(c3cccc(NC(=O)c4ccc(Cl)cc4)c3Cl)CC2=O)CCO1 (relative stereo) [Example 9, 4-Chloro-N-(2-chloro-3-{(4S)-2-imino-4-methyl-1-[(2R*,4R*)-2-methyltetrahydropyran-4-yl]-6-oxo-hexahydropyrimidin-4-yl}phenyl)-benzamide hydrochloride] | 52 | – |
| C[C@@H]1C[C@H](N2C(=N)N[C@](C)(c3cccc(NC(=O)c4cc(N5CCOCC5)ccn4)c3Cl)CC2=O)CCO1 (relative stereo) [Example 93, N-(2-Chloro-3-{(4S)-2-imino-4-methyl-1-[(2R*,4R*)-2-methyl-tetrahydropyran-4-yl]-6-oxo-hexahydropyrimidin-4-yl]phenyl)-4-(morpholin-4-yl)pyridine-2-carboxamide hydrochloride] | 47 | – |
| C[C@@H]1C[C@H](N2C(=N)N[C@](C)(c3cccc(NC(=O)c4cccc(C(F)(F)F)c4)c3Cl)CC2=O)CCO1 (relative stereo) [Example 41, N-(2-Chloro-3-{(4S)-2-imino-4-methyl-1-[(2R*,4R*)-2-methyl-tetrahydropyran-4-yl]-6-oxo-hexahydropyrimidin-4-yl}phenyl)-3-(trifluoromethyl)benzamide trifluoroacetic acid salt] | 15 | – |
| C[C@@H]1C[C@H](N2C(=N)N[C@](C)(c3cccc(NC(=O)c4cnc5ccncc5c4)c3Cl)CC2=O)CCO1 (relative stereo) [Example 43, N-(2-Chloro-3-{(4S)-2-imino-4-methyl-1-[(2R*,4R*)-2-methyl-tetrahydropyran-4-yl]-6-oxo-hexahydropyrimidin-4-yl]phenyl)-1,6-naphthyridine-3-carboxamide trifluoroacetic acid salt] | 92 | – |
| C[C@@H]1C[C@H](N2C(=N)N[C@](C)(c3cccc(NC(=O)c4cnccn4)c3Cl)CC2=O)CCO1 (relative stereo) [Example 14, N-(2-Chloro-3-{(4S)-2-imino-4-methyl-1-[(2R*,4R*)-2-methyl-tetrahydropyran-4-yl]-6-oxo-hexahydropyrimidin-4-yl}phenyl)-pyrazine-2-carboxamide hydrochloride] | 14 | – |
| C[C@@H]1C[C@H](N2C(=N)N[C@](C)(c3cccc(NC(=O)c4ncn5ccccc45)c3Cl)CC2=O)CCO1 (relative stereo) [Example 60, N-(2-Chloro-3-{(4S)-2-imino-4-methyl-1-[(2,R*,4R*)-2-methyl-tetrahydropyran-4-yl]-6-oxo-hexahydropyrimidin-4-yl}phenyl)-imidazo[1,5-a]pyridine-1-carboxamide hydrochloride] | – | 122 |
| C[C@@H]1C[C@H](N2C(=N)N[C@](C)(c3cccc(NC(=O)c4ccc(F)cc4C(F)(F)F)c3Cl)CC2=O)CCO1 (relative stereo) [Example 80, N-(2-Chloro-3-{(4S)-2-imino-4-methyl-1-[(2R*,4R*)-2-methyl-tetrahydropyran-4-yl]-6-oxo-hexahydropyrimidin-4-yl}phenyl)-4-fluoro-2-(trifluoromethyl)-benzamide trifluoroacetic acid salt] | 61 | – |
| C[C@@H]1C[C@H](N2C(=N)N[C@](C)(c3cccc(NC(=O)c4ncccc4C(F)(F)F)c3Cl)CC2=O)CCO1 (relative stereo) [Example 49, N-(2-Chloro-3-{(4S)-2-imino-4-methyl-1-[(2R*,4R*)-2-methyl-tetrahydropyran-4-yl]-6-oxo-hexahydropyrimidin-4-yl]phenyl)-3-(trifluoromethyl)pyridine-2-carboxamide trifluoroacetic acid salt] | 17 | – |
| C[C@@]1(c2cccc(NC(=O)c3ccccc3)c2Cl)CC(=O)N(C2CCOCC2)C(=N)N1 [Example 1, N-{2-Chloro-3-[(4S)-2-imino-4-methyl-6-oxo-1-(tetrahydropyran-4-yl)hexahydropyrimidin-4-yl]-phenyl]benzamide trifluoroacetic acid salt] | 227 | – |
| C[C@@H]1C[C@H](N2C(=N)N[C@](C)(c3cccc(NC(=O)c4cc5ccccc5nn4)c3Cl)CC2=O)CCO1 (relative stereo) [Example 46, N-(2-Chloro-3-{(4S)-2-imino-4-methyl-1-[(2R*,4R*)-2-methyl-tetrahydropyran-4-yl]-6-oxo-hexahydropyrimidin-4-yl]phenyl)-cinnoline-3-carboxamide trifluoroacetic acid salt] | 41 | – |
| C[C@@H]1C[C@H](N2C(=N)N[C@](C)(c3cccc(NC(=O)c4ncc(F)cc4F)c3Cl)CC2=O)CCO1 (relative stereo) [Example 100, N-(2-Chloro-3-{(4S)-2-imino-4-methyl-1-[(2R*,4R*)-2-methyl-tetrahydropyran-4-yl]-6-oxo-hexahydropyrimidin-4-yl}phenyl)-3,5-difluoropyridine-2-carboxamide hydrochloride] | 33 | – |
| C[C@H]1C[C@@H](N2C(=N)N[C@](C)(c3cccc(NC(=O)c4cccc(C#N)c4)c3Cl)CC2=O)CCC1(F)F (relative stereo) [Example 26, N-(2-Chloro-3-{(4S)-1-[(1S*,3S*)-4,4-difluoro-3-methylcyclohexyl]-2-imino-4-methyl-6-oxohexahydro-pyrimidin-4-yl]phenyl)-3-cyano-benzamide trifluoroacetic acid salt] | 15 | – |
